Measured values taken from patent US10457700B2, “Platinum prodrugs and methods of making and using thereof” (UNIVERSITY OF GEORGIA RESEARCH FOUNDATION, INC., priority 2015, dated 2019).

Experiments:
[1] = Cyclic voltammetry, Pt(IV)/Pt(II) reduction potential; type: physicochemical; conditions: 0.1 M KCl
Method: Redox potential of platinum (IV) prodrugs play important roles in regulating efficacy. The disclosed Pt(IV) prodrugs can be activated selectively by intracellular reduction, preferably at the tumor sites to reduce side effects. Redox potential is a measure of the ability of Pt(IV) compounds to form the active platinum (II) species. Electrochemical measurements on Platin-B were carried out in dimethylformamide (DMF)-phosphate buffered saline (PBS) at pH 6.0 and 7.4. Specifically, a conventional three-electrode set-up comprising a glassy carbon working electrode, platinum wire auxiliary electrode, and Ag/AgCl (3M KCl) reference electrode was used for electrochemical measurements. The electrochemical data were uncorrected for junction potentials. KCl was used as a supporting electrolyte. Platin-B (2 mM) solutions were prepared in 40% DMF phosphate buffered saline (PBS) of pH 6.0 and 7.4 with 0.1 M KCl and voltammograms were recorded at different scan rates.

[2] = test system: mitochondrial respiration of A2780/CP70 cells; assay: MitoStress test, Seahorse XF24 (OCR); type: cell-based, human; conditions: 1 μM, 24 h
Description: Prior to the assay, XF sensor cartridges were hydrated. […] The parameters calculated included: basal respiration (baseline respiration minus antimycin-A post injection respiration), ATP turnover (baseline respiration minus oligomycin post injection respiration), maximal respiratory capacity (FCCP stimulated respiration minus antimycin-A post injection respiration) and reserve respiratory capacity (FCCP stimulated respiration minus baseline respiration).

[3] = test system: A2780/CP70 cells; assay: Apoptosis detection by Annexin V-PI assay; type: cell-based, human; conditions: 50 μM, 12 h
Method: Enhanced activity of Platin-B in A2780/CP70 cells was further confirmed by Annexin-V-propidium iodide (PI) apoptosis-necrosis assay. […] The cells were trypsinized, repeatedly washed collecting the supernatants, and centrifuged at 754×g for 3 min, and the supernatants were collected. Cell density was determined and cells were resuspended in 1× annexinV-binding buffer to 1×10^6 cells/mL preparing a sufficient volume to have 100 μL per assay. To 100 μL of cell suspension, 5 μL ALEXA FLUOR™ 488 annexin V and 1 μL of 100 μg/mL PI working solution were added, incubated for 15 min at room temperature. After the incubation period, 400 μL of 1× annexin-binding buffer was added to each sample, samples were gently mixed keeping the samples on ice, and the samples were analyzed on the flow cytometer immediately.

[4] = test system: citrate synthase activity in A2780/CP70 cells; assay: Citrate synthase activity assay; type: cell-based, human; conditions: 1 μM, 24 h
Method: Citrate synthase activity assay was performed by following the instruction given in MitoCheck Citrate Synthase Activity assay kit (Cayman item no. 701040). Briefly, A2780/CP70 cells were seeded at a density of 1.2×10^6 cells/7 mL in 25 cm^2 cell culture flask and grown overnight. […] The cells were then scraped in presence of fresh media and centrifuged to obtain the cell pellet. The resultant pellet was washed 2 times with 1×PBS and solubilized in 200 μL extraction buffer. This cell suspension was incubated on ice for 20 min followed by centrifugation at 16000×g for 20 minutes at 4° C. The supernatant was collected and used for measuring the citrate synthase activity after 1:200 dilutions. Protein concentration in the samples was measured using BCA assay. […] Finally 20 μL of the substrate oxaloacetate from tube B was added to each well and absorbance was recorded immediately at 412 nm (50 seconds interval for 30 min at room temperature). The citrate synthase activity was calculated through the kinetic plot obtained from the time (min) vs. optical density (OD=412 nm) using the formula: CS Activity=(ΔA412 min−1/5.712 mM−×0.1 mL/0.03 mL)×sample dilution nmoles/min/mL. […]

[5] = test system: intracellular GSH in A2780/CP70 cells; assay: Cellular GSH assay with ThiolTracker Violet, flow cytometry; type: cell-based, human; conditions: 10 μM, 12 h
Method: The ability of Platin-B to interact with intracellular GSH in A2780/CP70 cells was investigated using the ThiolTracker Violet GSH detection reagent. Specifically, A2780/CP70 cells (4×10^5 cells/well/2 mL) were plated onto 6 well culture plates and allowed to grow overnight. […] After 12 h, both the attached and detached cells were collected by trypsinization, washed with PBS, and resuspended in Dulbecco's PBS (D-PBS) containing Ca^2+ and Mg^2+, glucose, and sodium pyruvate. The cells were then incubated with 10 μM (final concentration) ThiolTracker Violet for 30 min at 37° C. The cells were then washed with D-PBS, resuspended in buffer, and immediately analyzed on a flow cytometer with 405 nm excitation and 525 nm emission filters. The ThiolTracker Violet stain is a highly thiol reactive fluorescent probe and can be utilized in effective detection of intracellular GSH by quantitative detection modalities such as flow cytometry.

[6] = test system: GST enzyme; assay: GST enzymatic substrate competitive assay / cellular GST activity assay; type: biochemical; conditions: 50 or 100 μM, in buffer or A2780/CP70 cell lysates
Method: GST enzyme modulates GSH to attack on labile electrophilic halide containing molecules in cellular detoxification processes. […] GST enzymatic activity was evaluated by following the formation of GSH and 1-chloro-2,4-dinitrobenzene (CDNB) adduct.
This assay was performed according to the instruction given by the manufacturer (GST activity assay kit ab65326). AU the standard solutions were prepared as per the instruction. Samples were prepared in a total 50 μL volume with GST assay buffer, including a negative control with 50 μL of GST assay buffer only and a positive control (10 μL of GST positive control diluted to 1:50) and 40 μL of GST assay buffer only. Sample wells contained 10 μL of GST enzyme diluted to 1:50 and remaining of GST assay buffer. To each well, 5 μL GSH was added. 50 μL of substrate mix containing GST substrate CDNB (5 μL) was prepared. […] Then, 50 μL of substrate mix was added to each well including controls. The plate was stirred carefully to initiate the reaction and absorbance values were recorded once every minute at 340 nm using a plate reader to obtain 20 data points. GST activity was calculated through the kinetic plot obtained from the time (min) vs. optical density (OD340 nm) using the formula GST activity=ΔA340 min^−1/0.002777 μM·D/A, where D is the enzyme sample dilution factor and A is the enzyme sample volume added to each well. […]

[7] = test system: A2780/CP70 cells; assay: MTT cytotoxicity assay in cisplatin resistant A2780/CP70 cells; type: cell-based, human; conditions: 72 h
Method: (§1) Human prostate cancer cell line PC3 and DU145 were procured from the American type culture collection (ATCC). Ovarian cancer A2780 cells were obtained from Prof, Robert Brown, Imperial College London. […] Cells were passed every 3 to 4 days and restarted from frozen stocks upon reaching 20 passages.
(§2) PC3, A2780, or A2780/CP70 cells (2000 cells/well/100 μL) were seeded on a 96-well plate in 100 μL of desired medium and incubated for 24 h. After 24 h, media was removed and fresh media was added. The cells were treated with different constructs at varying concentrations and incubated for 72 h at 37° C. in 5% CO2. The cells were then treated with 20 μL of MTT (5 mg/mL in PBS) for 5 h. The medium was removed, the cells were lysed with 100 μL of DMSO, and the absorbance of the purple formazan was recorded at 550 nm using a Bio-Tek Synergy HT microplate reader. The background absorbance for each well was measured at 800 nm. Each well was performed in triplicate. […] Cells were grown for 7 days in high glucose medium prior to the MTT experiment. Cytotoxicity was expressed as mean percentage increase relative to the unexposed control±SD. Control values were set at 0% cytotoxicity or 100% cell viability.

[8] = test system: PC3 cells; assay: MTT cytotoxicity assay in PC3 cells; type: cell-based, human
Method: as §1, §2

## [NH2][Pt]([NH2])([Cl])([Cl])([O]C(=O)CCCCCBr)[O]C(=O)CCCCCBr [Platin-B]
[1]; pH 6.0, 40% DMF-PBS
  Pt(IV)/Pt(II) couple reduction potential: ~−0.187 V vs. normal hydrogen electrode (NHE)
[1]; pH 7.4, 40% DMF-PBS
  Pt(IV)/Pt(II) couple reduction potential: ~−0.217 V vs. normal hydrogen electrode (NHE)
[2]
  effect on mitochondrial respiration (OCR): inhibited mitochondrial respiration significantly
[3]
  sensitivity of resistant cells (Annexin V-PI apoptosis-necrosis): high degree of sensitivity
[4]
  mitochondrial content by citrate synthase activity: lower mitochondrial content
[5]
  effect on intracellular GSH levels: enhanced ability to reduce GSH levels
[6]
  GSH conjugation catalyzed by GST: more efficient

## N.N.[Cl][Pt][Cl] [Cisplatin, cis-diamminedichloridoplatinum(II), reference compound]
[7]
  IC50: 14.7 ± 0.9 µM
[2]
  effect on mitochondrial respiration (OCR): did not demonstrate such activities
[8]; 72 h
  IC50: 14.4 ± 1.6 µM
[5]
  effect on intracellular GSH levels: minimal effect

## O=C(O)CCCCCBr [6-BH, 6-bromohexanoic acid]
[7]; Homo sapiens
  IC50: > 100 µM
[8]; Homo sapiens, PC-3, 72 h
  IC50: > 100 µM
